Source: the supplement of paper PMC10290057
Where a name gives a salt, the structure may show the parent alone.

Assays:
HCT116 [1] = experiment: AC50 cell viability (CellTiter-Glo); higher = less potent; details: 48 h
HCT116 [2] = experiment: efficacy (fitted maximal change in viability relative to DMSO control); higher = less cytotoxic (negative = loss of viability); details: 48 h
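Throughout, for AC50 cell viability (CellTiter-Glo): HCT116 colorectal carcinoma cells screened at five concentrations per compound, luminescent viability scaled between DMSO wells and empty wells on each plate, curves fitted per compound.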
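Throughout, for efficacy (fitted maximal change in viability relative to DMSO control): Luminescence-based viability readout, five doses per compound, normalized against on-plate DMSO and empty-well controls, followed by dose-response curve fitting for every drug.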

Row | SMILES | AC50 cell viability (HCT116 [1]) [µM] | efficacy (HCT116 [2]) [%]
1 | O=C/1\C=C(/OC(=C1)/C2=C3SC4=C(SC3=CC=C2)C=CC=C4)N5CCOCC5 [KU-0064] | 16.6 | -77.5
2 | Clc1ccc(CCC(Cn2ccnc2)Sc2c(Cl)cccc2Cl)cc1 (configuration not stated) [Butoconazole nitrate] | 20.9 | -51.6
3 | CCN1C(=O)\C(=C/C2=C1N=C(NC3=CC=C(N4CCNCC4)C(=C3)F)N=C2)C5=CC=C(Cl)C=C5Cl [FRAX-486] | 2.63 | -32.6
4 | CN[C@@H]1C[C@H]2O[C@@](C)([C@@H]1OC)n1c3ccccc3c3c4c(c5c6ccccc6n2c5c31)C(=O)N[C@H]4O [7-Hydroxystaurosporine] | 0.241 | -92.5
5 | C[C@H]1COCCN1c1cc(C2([S+](=O)([O-])C3CC3)CC2)nc(-c2ccc(NC(=S)NCCO)cc2)n1 [AZD-3147] | 7.42 | -113
6 | C=CC(=O)Nc1cc2c(Nc3ccc(F)c(Cl)c3)ncnc2cc1C#CC(C)(C)N1CCN(C)CC1 [AV-412] | 9.34 | -104
7 | NC(=O)c1cnc2[nH]ccc2c1NC1C2CC3C[C@H]1CC(O)(C3)C2 (some centres not stated) [Peficitinib] | 7.42 | -67.2
8 | O=C(Nc1cccnc1)N1CCC(Cc2cccc(Oc3ccc(C(F)(F)F)cn3)c2)CC1 [PF-3845] | 13.2 | -82.1
9 | FC(F)c1nc2ccccc2n1-c1nc(N2CCOCC2)nc(N2CCOCC2)n1 [ZSTK-474] | 0.742 | -58.2
10 | CNc1nccc(-c2cccnc2Oc2cc(C(=O)Nc3cccc(C(F)(F)F)c3)ccc2C)n1 [AMG-Tie2-1] | 1.66 | -78.8
11 | CC[C@@](C)(Nc1ccnc(-c2c[nH]c3ncccc23)n1)C(=O)NCC(F)(F)F [Decernotinib] | 20.9 | -56.7
12 | O=C1\C=C(OC2=C(C=CC=C12)C3=CC=CC4=C3SC5=C4C=CC=C5)\N6CCOCC6 [NU-7441] | 3.72 | -76.8
13 | CN(Cc1cnc2nc(N)nc(N)c2n1)c1ccc(C(=O)N[C@@H](CCC(=O)O)C(=O)O)cc1 [Methotrexate] | 0.118 | -84.4
14 | NCCCCNCCCN [Spermidine] | 23.5 | -78.6
15 | N#Cc1ccc2c(c1)CN([S+](=O)([O-])c1cccs1)[C@H](Cc1ccccc1)CN2Cc1cnc[nH]1 | 0.417 | -73.3
16 | NC(=O)c1cccc2nc(-c3ccc([C@H]4CCCN4)cc3F)[nH]c12 | 10.5 | -67.3
17 | CC#C[C@@H](CC(=O)O)c1ccc(OCc2cccc(-c3ccc(C(F)(F)F)cc3)c2)cc1 [AMG-837] | 20.9 | -40.8
18 | Cc1ccc(C(N)=O)cc1Nc1nccc(-c2cn(C(C)C)c3cnccc23)n1 | 2.09 | -69.4
19 | COc1cc2ncnc(Nc3ccc(F)c(Cl)c3)c2cc1NC(=O)/C=C/CN1CCCCC1 [Dacomitinib] | 8.33 | -99.1

Row | SMILES | AC50 cell viability (HCT116 [1]) [µM] | efficacy (HCT116 [2]) [%]
20 | Clc1ccc(COC(Cn2ccnc2)c2ccc(Cl)cc2Cl)cc1 (configuration not stated) [Econazole nitrate] | 20.9 | -83.5
21 | C=C1C[C@@H]2CC[C@@]34C[C@H]5O[C@H]6[C@@H](O3)[C@H]3O[C@H](CC[C@@H]3O[C@H]6[C@H]5O4)CC(=O)C[C@@H]3[C@@H](OC)[C@@H](C[C@H](O)CN)O[C@H]3C[C@H]3O[C@@H](CC[C@@H]1O2)C[C@@H](C)C3=C [Eribulin mesylate] | 0.00241 | -56.4
22 | C#Cc1cccc(Nc2ncnc3cc(OCCOC)c(OCCOC)cc23)c1 [Erlotinib] | 9.34 | -47.1
23 | COc1cc2c(NC3CCN(C(C)C)CC3)nc(C3CCCCC3)nc2cc1OCCCN1CCCC1 [UNC-0638] | 8.33 | -94.9
24 | CC1=NN=C(C[C@@H]2\C=C(C3=CC=C(Cl)C=C3)/C4=CC=CC=C4[N]5C(=NN=C25)C)O1 [BAY-356] | 0.934 | -72.7
25 | C[C@H]1O[C@H](C[C@H](O)[C@@H]1O)O[C@H]2[C@@H](O)C[C@@H](O[C@@H]2C)O[C@H]3[C@@H](O)C[C@@H](O[C@@H]3C)O[C@H]4CC[C@@]5(C)[C@H](CC[C@@H]6[C@@H]5C[C@@H](O)[C@]7(C)[C@H](CC[C@]67O)C/8=C/C(=O)OC8)C4 [Digoxin] | 0.0525 | -80.9
26 | O=[N+]([O-])c1ccc(Nc2ccccc2-c2ccccc2)c2nonc12 | 16.6 | -90.7
27 | CC(C)n1nc(-c2ccc3oc(N)nc3c2)c2c(N)ncnc21 [INK-128] | 0.372 | -100
28 | C=CCc1cccc(/C=N/NC(=O)CN2CCN(Cc3ccccc3)CC2)c1O [PAC-1] | 7.42 | -94.4
29 | C=CC(=O)Nc1cccc(Nc2nc(Nc3ccc(Oc4ccnc(C(=O)NC)c4)cc3)ncc2F)c1 [CNX-774] | 14.8 | -111
30 | CCN1\C(=C(C(=O)NC)/C(=O)C2=C1N=C(C=C2)C#CC(C)(O)COC)N (configuration not stated) | 18.6 | -31.1
31 | COC1=CC=CC2=C1C(=NC(=N2)C3=CC=CS3)NN4C(=O)\C=C(C)/C4=O [SPC-839] | 0.525 | -91.1
32 | NC1CCCN(c2c(/C=C3\SC(=O)NC3=O)cccc2-c2ccccc2)C1 (configuration not stated) [AZD-1208] | 23.5 | -67.1
33 | COC(=O)c1ccc2c(c1)NC(=O)/C2=C(\Nc1ccc(N(C)C(=O)CN2CCN(C)CC2)cc1)c1ccccc1 [Nintedanib] | 5.9 | -92.2
34 | N#CC[C@H](C1CCCC1)n1cc(-c2ncnc3[nH]ccc23)cn1 [Ruxolitinib] | 11.8 | -67.4
35 | CC[C@H](C)C(=O)O[C@H]1CC\C=C2\C=C/[C@H](C)[C@H](CC[C@@H]3C[C@@H](O)CC(=O)O3)[C@@H]12 [Mevastatin] | 14.8 | -58.3
36 | C=CC(=O)Nc1cccc(Nc2nc(Nc3ccc(N4CCN(C(C)=O)CC4)cc3OC)ncc2C(F)(F)F)c1 [Rociletinib] | 8.33 | -112
37 | Cc1cc(Nc2nc(N[C@@H](C)c3ncc(F)cn3)ncc2Cl)n[nH]1 [AZD-1480] | 5.25 | -66.2
38 | Cc1cn(-c2cc(NC(=O)c3ccc(C)c(Nc4nccc(-c5cccnc5)n4)c3)cc(C(F)(F)F)c2)cn1 [Nilotinib] | 1.66 | -46.8

Row | SMILES | AC50 cell viability (HCT116 [1]) [µM] | efficacy (HCT116 [2]) [%]
39 | Cc1cc(Nc2ncc(Cl)c(Nc3ccccc3[S+](=O)([O-])C(C)C)n2)c(OC(C)C)cc1C1CCNCC1 [Ceritinib] | 13.2 | -115
40 | CC[P](CC)(CC)=[Au][S][C@@H]1O[C@H](COC(C)=O)[C@@H](OC(C)=O)[C@H](OC(C)=O)[C@H]1OC(C)=O [Auranofin] | 2.63 | -100
41 | CC(=O)c1cnc2ccc(-c3cc(Cl)c(O)c(Cl)c3)nc2c1N[C@H]1CC[C@H](CN(C)C)CC1 [OTS-167] | 0.0539 | -70.5
42 | Oc1ccc(-c2ccc(-c3cc(Nc4cccc(CNC5CC5)c4)[nH]n3)cc2)c(O)c1 [TCS-2312] | 3.32 | -77.1
43 | O=C(O)C1(Cc2cccc(Nc3nccs3)n2)CCC(Oc2cccc(Cl)c2F)CC1 (configuration not stated) [MK-5108] | 0.833 | -34.3
44 | O=C(NO)c1cnc(N2C[C@H]3C[C@@H]2CN3c2cc(C(F)(F)F)ccn2)nc1 [HDACi-02] | 1.48 | -86.6
45 | C/C=C1\NC(=O)[C@H]2CSSCC/C=C\[C@H](CC(=O)N[C@H](C(C)C)C(=O)N2)OC(=O)[C@H](C(C)C)NC1=O [Romidepsin] | 0.00742 | -94.8
46 | NC(=O)[C@H]1CCS[C@@H]2C[C@]3(CCCN3C(=O)Cc3ccc(NC(=O)COc4ccc(Cl)cc4Cl)cc3)C(=O)N12 [ST-2825] | 10.5 | -68.6
47 | Fc1cc(-c2cccc3ncc(-c4cnn(C5CCNCC5)c4)nc23)cc(F)c1CN1CCOCC1 [NVP-BSK805] | 8.33 | -91
48 | C\C1=C(\[C@@H](OC2=C1C=CC(=C2)O)C3=CC=C(OCCN4CCCCC4)C=C3)C5=CC=C(O)C=C5 [Acolbifene] | 18.6 | -94.9
49 | CC(C)(O)CNc1nc(Nc2ccnc(C(F)(F)F)c2)nc(-c2cccc(C(F)(F)F)n2)n1 [Enasidenib] | 18.6 | -71.3
50 | CC\1=C(C(\N=C(/N1)C2=CC(=NC=C2)Cl)C3=C(F)C=C(Cl)C=C3)/C(=O)NC4=C(F)C=C5[NH]N=CC5=C4 (configuration not stated) [GSK-25] | 29.5 | -97.8
51 | COc1cc(C(N)=O)ccc1NC(=O)[C@@H]1N[C@@H](CC(C)(C)C)[C@@]2(C(=O)Nc3cc(Cl)ccc32)[C@H]1c1cccc(Cl)c1F [RO8994] | 0.934 | -110
52 | CCC[C@H](Nc1nc(-c2ccc(NC(=O)NCC)c(OC)c2)ncc1C)c1cccnc1 [Lexibulin hydrochloride] | 0.0742 | -73.5
53 | COc1cccc2c1C(=O)c1c(O)c3c(c(O)c1C2=O)C[C@@](O)(/C(CO)=N/NC(=O)CCCCCN1C(=O)C=CC1=O)C[C@@H]3O[C@H]1C[C@H](N)[C@H](O)[C@H](C)O1 [Aldoxorubicin hydrochlorid] | 2.35 | -73.6
54 | CCc1ccc(C(=O)Nc2cc(CN3CCN(C)CC3)cc(C(F)(F)F)c2)cc1C#Cc1cnc2ccnn2c1 [PRP003-013] | 4.68 | -100
55 | CC[S+](=O)([O-])c1cccc(-c2cc(C(=O)NC3CCN(C)CC3)c(C)c3[nH]c4ncc(C)cc4c23)c1 [TAK-901] | 0.417 | -76.3
56 | N#C/N=C(\NCCCCCCOc1ccc(Cl)cc1)Nc1ccncc1 [GMX-1778] | 0.0132 | -93.3
